Peptide text beside a SMILES is read from it.
Tested on: rat femoral vein
Assay: Vasodilation of isolated rat femoral vein contracted with PGF2α (organ bath)
Conditions: PGF2α 3×10^-5 M, test substance 10^-5 M
Procedure: This effect was also shown by observing vasodilation as a result of stimulation of the rat femoral vein with the above agonist. Adult Sprague-Dawley rats were killed by exsanguination during diethylether anesthesia and the femoral vein was removed and dissected free from fat and connective tissue. Circular preparations of the vein were mounted in an organ bath (5 ml) on two L-formed metal holders (0.2 mm diameter). One of the metal holders was screwed into one of the levers of a Grass FTO C force displacement transducer. The bathing liquid was Kreb's Ringer solution containing 118 mM NaCl, 4.7 mM KCl, 2.5 mM CaCl2, 1.2 MM MgSO4, 24.8 mM NaHCO3, 1.2 mM KH2 PO4 and 5.6 mM glucose. The bathing fluid was continuously treated with 88.5% oxygen-11.5% CO2; the temperature was held at 37° C. The endothelium was removed by bubbling CO2 through the vessels. The basal tension was between 7.5 and 12 mN. The preparations were equilibrated for at least 1 hr before application of agonist and control substances.

## CC[C@H](C)[C@H](NC(=O)[C@H](CC(C)C)NC(=O)[C@@H](N)CO)C(=O)NCC(=O)N[C@@H](CCCNC(=N)N)C(=O)N[C@@H](CC(C)C)C(=O)O [SLIGRL] (H-SLIGRL-OH)
Endothelium present, FIG. 8a
  Effect on contraction induced by PGF2α: relaxed
Endothelium removed, FIG. 8b
  Effect on contraction induced by PGF2α: not counteracted

Source: US6043212A, “Recombinant C140 receptor, its agonists and antagonists, and nucleic acids encoding the receptor” (COR Therapeutics, Inc., priority 1995, dated 2000)
